In patent US20060019938A1, “Estrogen administration for treating male cognitive dysfunction or improving male cognitive function” (priority 2003, published 2006):

Key:
Format in all cases: in vivo, human
[1] = tested on: men with androgen-independent prostate cancer; assay: Paragraph Recall test (immediate and delayed; long-term/verbal memory)
Protocol: One illustrative declarative memory test for assessing the medial temporal lobe memory system is known as a Paragraph Recall Task. This task is a subtest of the Weschler Memory Scale—Revised. A subject is read a short story and then immediately asked to recall the story. After an approximate 30 minute retention interval, they are asked to recall the story again. The recall responses are scored for number of story items correctly recalled and there is a standard scoring system. There are two stories for each administration so the total score is the total of both stories combined; one for immediate memory; and one for delayed memory.
(§1) Estradiol was transdermally administered to nineteen men with androgen-independent prostate cancer following a protocol outlined below.
(§2) Standard prophylactic breast irradiation was offered to all patients prior to therapy to reduce the risk of gynecomastia. Six Climara® estradiol patches (25.0 cm^2, 7.6 mg estradiol per patch) were adhered to the patients once every 7 days for a period of at least 4 weeks for a dosage of 0.6 mg estradiol/day (in vivo estradiol delivery per patch is 0.1 mg/day).
(§3) Certain cognitive functions of the patients were evaluated prior to starting estradiol treatment and approximately 4 weeks after starting estradiol treatment. Specifically, memory was assessed using immediate and delayed Paragraph Recall test and working memory was assessed using the SOP and Trails tests. Serum estradiol concentration was also measured after approximately 4 weeks of treatment, as well as other standard monitoring measurements. The Paragraph Recall test was performed as described above. The SOP test was performed as described above and was computer-administered with 8 and 10 card sets. Each card of the set was depicted on a computer screen and the subject selected the drawing for each card by pressing a corresponding number on the keyboard. The Trails test was performed as described above.
(§4) The monitoring was similar as described above in connection with example 1. Certain cognitive functions of the patients were evaluated at the beginning of the study and then approximately 4 weeks later. In the case of patients receiving estradiol treatments, the patients were evaluated prior to the initial estradiol and then approximately 4 weeks after starting estradiol treatment. Verbal memory was assessed using the immediate Paragraph Recall test and working memory was assessed using the Trails tests. Serum estradiol concentration was also measured after approximately 4 weeks of treatment, as well as other standard monitoring measurements.

[2] = tested on: men with androgen-independent prostate cancer; assay: Subject Ordered Pointing (SOP) working memory test
Excerpt: An illustrative working memory test is known as Subject Ordered Pointing (SOP). SOP is described, for example, in Janowsky et al., “Sex steroids modify working memory,” J Cogn Neuroscience 12(3):407-14, 2000 and Petrides et al., “Deficits on subject-ordered tasks after frontal- and temporal-lobe lesions in man,” Neuropsychologia 20:249-62, 1982. In general, subjects are presented with stacks of cards (6, 8, 10 or 12 cards/sets). […] The subject is to touch one drawing on each card in any order, but not touch the same drawing on subsequent cards in the set. Subjects err when they touch a drawing that had been touched on a previous card in the set. Therefore, the subject has to remember previous drawings touched while planning a future response. Subjects repeat each 6, 8, 10, and 12 card set three times. The total number of errors across all card sets is the measure of interest. […] Subjects are instructed to do the task at their own pace, and to try to not go too quickly or too slowly.
as §1, §2
as §3, with “Each card of the set was depicted on a computer screen and the subject selected the drawing for each card by pressing a corresponding number on the keyboard. The Trails test was performed as described above.” left out

[3] = tested on: men with androgen-independent prostate cancer; assay: Trails working memory test
Excerpt: A further illustrative working memory test is known as the Trails test. This test is a dot-to-dot paper pencil test where the subject connects dots (1-2-3-4 etc.). On a second measure they connect dots but the dots are labeled alternately in letters and numbers so they have to shift their cognitive set and keep in mind where they are in each set: 1 to A to 2 to B to 3 etc. Their score is the number of seconds to complete the dot to dot. Estradiol was transdermally administered to nineteen men with androgen-independent prostate cancer following a protocol outlined below. Standard prophylactic breast irradiation was offered to all patients prior to therapy to reduce the risk of gynecomastia. […] Certain cognitive functions of the patients were evaluated prior to starting estradiol treatment and approximately 4 weeks after starting estradiol treatment. Specifically, memory was assessed using immediate and delayed Paragraph Recall test and working memory was assessed using the SOP and Trails tests. Serum estradiol concentration was also measured after approximately 4 weeks of treatment, as well as other standard monitoring measurements. […] Certain cognitive functions of the patients were evaluated at the beginning of the study and then approximately 4 weeks later. […] Verbal memory was assessed using the immediate Paragraph Recall test and working memory was assessed using the Trails tests. […]

[4] = Serum estradiol concentration during transdermal estradiol treatment
Protocol: Standard prophylactic breast irradiation was offered to all patients prior to therapy to reduce the risk of gynecomastia. Six […]® estradiol patches (25.0 cm^2, 7.6 mg estradiol per patch) were adhered to the patients once every 7 days for a period of at least 4 weeks for a dosage of 0.6 mg estradiol/day (in vivo estradiol delivery per patch is 0.1 mg/day). Certain cognitive functions of the patients were evaluated prior to starting estradiol treatment and approximately 4 weeks after starting estradiol treatment. Specifically, memory was assessed using immediate and delayed Paragraph Recall test and working memory was assessed using the SOP and Trails tests. Serum estradiol concentration was also measured after approximately 4 weeks of treatment, as well as other standard monitoring measurements. The Paragraph Recall test was performed as described above. The SOP test was performed as described above and was computer-administered with 8 and 10 card sets. Each card of the set was depicted on a computer screen and the subject selected the drawing for each card by pressing a corresponding number on the keyboard. The Trails test was performed as described above. The monitoring was similar as described above in connection with example 1. Certain cognitive functions of the patients were evaluated at the beginning of the study and then approximately 4 weeks later. In the case of patients receiving estradiol treatments, the patients were evaluated prior to the initial estradiol and then approximately 4 weeks after starting estradiol treatment. Verbal memory was assessed using the immediate Paragraph Recall test and working memory was assessed using the Trails tests. Serum estradiol concentration was also measured after approximately 4 weeks of treatment, as well as other standard monitoring measurements.

[5] = Serum testosterone (total and free) before and after transdermal estradiol; conditions: Visit 2, after about 4 weeks transdermal estradiol, Example 2
Excerpt: Research subjects consisted of healthy men, and men who have been diagnosed with prostate cancer that were between the ages of 45-100. The subjects were classified into three groups: (1) Prostate cancer patients progressing on ADT and before and after starting second line therapy with transdermal estradiol as described above; (2) Prostate cancer patients continuing ADT; and (3) Age-matched healthy controls. The treatment regimen of these men was not modified as part of their participation in this study. […]
as §4

[6] = tested on: men with androgen-independent prostate cancer; assay: Toxicity monitoring (thromboembolic complications) during transdermal estradiol; conditions: 0.6 mg estradiol/day transdermal, at time of most recent analysis
Protocol: as §2, §3

[7] = tested on: prostate cancer patients progressing on ADT; assay: Profile of Mood States (POMS) test, confusion subscale; conditions: Example 2, prostate cancer patients progressing on ADT
Excerpt: Research subjects consisted of healthy men, and men who have been diagnosed with prostate cancer that were between the ages of 45-100. The subjects were classified into three groups: (1) Prostate cancer patients progressing on ADT and before and after starting second line therapy with transdermal estradiol as described above; (2) Prostate cancer patients continuing ADT; and (3) Age-matched healthy controls. The treatment regimen of these men was not modified as part of their participation in this study. Exclusion criteria included currently taking hormone replacement, active malignancy other than prostate cancer or non-melanoma skin cancer, major surgery within last 4 weeks, and score less than 25 on the Mini-Mental State Exam (a screening measure for dementia). The participant characteristics are shown below in Table 3.
The estradiol administration was the same as in example 1.
Mood was assessed using a Profile of Mood States (POMS) test as described in McNair et al, Profile of mood states manual (Education and Industrial Testing Service, San Diego (1971)). Participants completed the POMS test at both testing sessions (i.e., beginning of study and 4 weeks later). The scale asks participants to rate how they felt in the last week. Responses are categorized into six subscales (tension-anxiety, depression, anger, fatigue, confusion and vigor). […]

[8] = Example 1, men with AIPC treated with estradiol
[9] = Example 2, prostate cancer patients progressing on ADT
[10] = on estradiol vs pre-treatment, about 4 weeks
[11] = on estrogen, about 4 weeks, 0.6 mg estradiol/day transdermal, men with AIPC
[12] = on estrogen, about 4 weeks, 0.6 mg/day transdermal, data from 18 subjects

For C[C@]12CC[C@@H]3c4ccc(O)cc4CC[C@H]3[C@@H]1CC[C@@H]2O [Estradiol, estra-1,3,5(10)-triene-3,17β-diol], the long-term memory [1, 8] was “significant improvement in their long-term memory”, the “verbal memory performance (immediate Paragraph Recall, FIG. 2)” value [1, 9] was “improved verbal memory performance” and the “delayed Paragraph Recall test score improvement” value [1, 10] was 27%. For the same compound, the “immediate Paragraph Recall test score improvement” value [1, 10] was 19%, the “Paragraph Recall (delay; # correct)” value [1, 11] was 18.8 # correct and the “Paragraph Recall (immediate; # correct)” value [1, 11] was 22.9 # correct. The “working memory (Subject-Ordered and Trails tests)” value [2, 8] was “no change in working memory”, the “Subject Ordered (# of errors), 8 item” value [2, 12] was 6.3 # of errors and the “Subject Ordered (# of errors), 10 item” value [2, 12] was 7.0 # of errors. For the same compound, the “working memory (Trails test, FIG. 1)” value [3, 9] was “did not affect working memory”, the “Trails (seconds B-A)” value ([3]; on estrogen, about 4 weeks, 0.6 mg/day transdermal, data from 15 subjects) was 69.9 s and the “Estradiol (serum)” value ([4]; Visit 2, after about 4 weeks transdermal estradiol, Example 2) was 428.8 (280.7) pg/mL. For the same compound, the concentration at 1 month ([4]; human, serum, other: transdermal, 0.6 mg/day, 1 month of treatment, Example 1, read-out: Estradiol, mean ± 95% CI) was 0.46 ± 0.126 ng/mL, the concentration at 2 months ([4]; human, serum, other: transdermal, 0.6 mg/day, 2 months of treatment, Example 1, read-out: Estradiol, mean ± 95% CI) was 0.371 ± 0.115 ng/mL and the “Free T” value [5] was 3.5 (1.9) pmol/L. The “Total T” value [5] was 9.7 (3.9) ng/dL, the “thromboembolic complications or other significant toxicity” value [6] was “no thromboembolic complications or other significant toxicity issues” and the “confusion (POMS, FIGS. 3 and 4)” value [7] was “trend for men receiving estradiol to report a decrease in confusion”.
